# Assay results as given in patent publication US20230075822A1, “USE OF CASTALAGIN OR ANALOGS THEREOF FOR ANTI-CANCER EFFICACY AND TO INCREASE THE RESPONSE TO IMMUNE CHECKPOINT INHIBITORS” (THE ROYAL INSTITUTION FOR THE ADVANCEMENT OF …, priority 2020, published 2023).
# Key:
# [1] = system: MCA-205 sarcoma; experiment: Subcutaneous MCA-205 sarcoma tumor model (anti-PD-1 sensitive), SPF-reared mice; format: in vivo, C57BL/6 mice; details: for anti-cancer activity (tumor size at sacrifice): in the presence of anti-PD-1
# Method: FIG. 1A is a schematic of the protocol used to study the effect of a Camu camu extract (CC) alone and additive effect when combined to anti-PD-1 therapy in a murine tumor model sensitive to anti-PD-1 therapy. Syngeneic C57BL/6 mice were implanted with 0.8×10^6 MCA-205 sarcoma, subcutaneously and treated intraperitoneally (i.p.) when tumors reached 20 to 35 mm^2 in size with anti-PD-1 mAb (250 μg/mouse; clone RMP1-14,) or isotype control (clone 2A3) with or without daily oral gavage with 200 mg/kg of [NT] Powder from SunFood). Murine studies. All animal studies were approved by the Institutional Animal Care Committee (CIPA) and carried out in compliance with the Canadian Council on Animal Care guidelines. Murine experiments were conducted using seven-week-old female C57BL/6 mice, obtained from Charles River, Canada. Germ-free female C57BL/6 mice were purchased from the International Microbiome Centre Germ-Free Facility (University of Calgary, Canada) and maintained at the CR-CHUM Germ-Free Facility. Cell culture, reagents and tumor cell lines. MCA-205 fibrosarcoma cells and E0771 mammary adenocarcinoma cells, class I MHC H-2b syngeneic cell lines for C57BL/6 mice, were used for this study. MCA-205 cells were cultured at 37° C. in the presence of 5% CO2 in Roswell Park Memorial Institute (RPMI) 1640 (Gibco-lnvitrogen) containing 10% Fetal bovine serum (FBS) (Wisent), 2 mM L-glutamine (Wisent), 100 IU/ml penicillin/streptomycin (Wisent), 1 mM sodium pyruvate (Wisent) and MEM non-essential amino acids (Gibco-lnvitrogen). E0771 cells were cultured at 37° C. in the presence of 5% CO2 in Dulbecco's Modified Eagle's Medium (DMEM) (Gibco-lnvitrogen) containing 10% FBS (Wisent), 2 mM L-glutamine, 100 IU/ml penicillin/streptomycin (Wisent), 1 mM sodium pyruvate (Wisent). Subcutaneous model of MCA-205 sarcoma and E0771 breast cancer. Syngeneic C57BL/6 mice were implanted with 0.8×10^6 MCA-205 or 0.5×10^6 E0771 subcutaneously. When tumors reached 20 to 35 mm^2 in size, mice were treated four times (or two times for flow cytometry analysis, see section below) intraperitoneally (i.p.) every three day with anti-PD-1 monoclonal antibody (mAb) (250 μg/mouse; clone RMP1-14, BioXcell) or isotype control (clone 2A3, BioXcell). Upon treatment initiation, mice received a daily oral gavage with the following products: Myrciaria dubia, [NT] raw extract (Sunfood) (200 mg/kg per mouse), fractions from the extraction round 1 (P, INT, NP, Insol) (40.18 mg/kg per mouse), fractions from the extraction round 2 (P1, P2, P3 and P4) (equivalent to fraction P dose of 40.18 mg/kg per mouse), […] (extracted from CC, see isolation process below) (0.85 mg/kg per mouse), ellagic acid (0.85 mg/kg per mouse) (Sigma-Aldrich), urolithin A (0.85 mg/kg per mouse) (Sigma-Aldrich), […] (0.5 mg/kg per mouse) (PhytoProof®, Sigma-Aldrich) and castalagin at different concentration: 1/8, 1/6, 1/4, 1/2 of the standard concentration, at the standard concentration (0.85 mg/kg per mouse), 1.5-fold (1.25 mg/kg per mouse) and three-fold increase concentration (2.55 mg/kg per mouse) (PhytoProof©, Sigma-Aldrich or isolated from food grade oak, see isolation process below). In the control group mice received daily oral gavage with water (100 μL) Tumor area was routinely monitored every three days by means of a caliper. In the depletion experiments, we used the anti-CD8 mAb (150 μg/mouse; clone 53-6.7, BioXcell) or isotype control (clone 2A3, BioXcell.
# [2] = system: Ruminococcaceae; experiment: qRT-PCR with Ruminococcaceae-specific primers on mouse feces; format: in vivo, mice; details: 6 days of oral gavage, vs water
# Method: FIG. 9J is a graph showing the effect of castalagin treatment (0 mg/kg, 1/4×, 0.21 mg/kg, 1×, 0.85 mg/kg, and 3×, 2.55 mg/kg) on the amount of Ruminococcaceae in the feces. Real-time PCR was performed on DNA extracted from mouse stools after 6 days of oral gavage with water or castalagin at 0.21 mg/kg, 0.85 mg/kg and 2.55 mg/kg using specific primers for Ruminococcaceae detection in MCA-205-bearing, SPF-reared mice (n=5). *p<0.05, **p<0.01.
# FIG. 13 is a graph depicting the results of qPCR assays performed on DNA extracted from mouse stools after 6 days of oral gavage with water or castalagin at 0.85 mg/kg using specific primers for Ruminococcaceae detection in MCA-205—bearing, SPF-reared mice (n=10). *p<0.05,
# Genomic DNA extraction from mouse feces. Total genomic DNA from fecal pellets was extracted using ZymoBIOMICS DNA Miniprep Kit (Zymo Research Corporation) and immediately stored at -80° C. This protocol involves a bead beating step to ensure full recovery of bacterial DNA. DNA concentration and quality were measured using the Nanodrop ND-1000 (ThermoFisher).
# Quantitative real-time PCR (qRT-PCR). Quantitative real-time PCR was performed to evaluate the relative levels of the total bacterial DNA and the V6 region of the 16S rRNA gene was amplified using the primer set 891F (5′-[…]-3′, SEQ ID NO:1) and 1033R (5′-TGCGGGACTTAACCCAACA-3′, SEQ ID NO:2) (Anhê et al. Diabetologia. 2018 April; 61(4):919-931) and specifically to evaluate the relative levels of the Ruminococcaceae DNA using the specific primers F (5′-[…]-3′, SEQ ID NO:3) and R (5′-[…]-3′, SEQ ID NO:4) (Garcia-Mazcorro JF et al FEMS Microbiol Ecol 2012; 80(3):624-36). DNA (400ng/well) extracted was combined with 500 nM of the above described primer mix and 1× qPCRBIO SyGreen blue Mix Hi-ROX (PCRBIOSystems). The qPCR reaction was performed on the Applied Biosystems StepOnePlus Real-Time PCR System (ThermoFisher Scientific) at 95° C. for 3min to denature DNA, with amplification proceeding for 40 cycles at 95° C. for 5s, 60° C. for 30 s, and completed with a melt curve stage. Raw threshold cycle (Ct) values were compared to a bacterial standard curve produced with Escherichia coli DNA for the 16s analysis and with Ruminoccocus bicirculans for the Rumniccocaceae analysis for approximation of bacterial load.
compound,measurement,setting,value
"O=C1OC[C@H]2OC(=O)c3cc(O)c(O)c(O)c3-c3c(O)c(O)c(O)c4c3C(=O)O[C@H]([C@H]3OC(=O)c5c-4c(O)c(O)c(O)c5[C@@H]3O)[C@@H]2OC(=O)c2cc(O)c(O)c(O)c2-c2c1cc(O)c(O)c2O [castalagin, Castalagin]",dose dependence of anti-cancer activity,[1]; 6 concentrations from ⅛ to 3-fold the standard dose,dose-dependent effect with a potential plateau
same,antitumor effect,"[1]; dose experiment, 1/4 concentration dose (0.21 mg/kg)",no antitumor effect
same,anti-cancer activity (tumor size at sacrifice),"[1]; dose experiment, 3-fold concentration (2.55 mg/kg per mouse)",did not the standard dose
same,anti-cancer activity (tumor size at sacrifice),"[1]; dose experiment, standard dose (0.85 mg/kg)",anti-cancer activity became significant
same,anti-cancer activity (tumor size at sacrifice),"[1]; dose experiment, ½ dose (0.42 mg/kg)",Some anti-cancer activity was observed
same,Ruminococcaceae abundance (qRT-PCR),[2]; 1/4 concentration dose (0.21 mg/kg),not increase
same,"Ruminococcaceae abundance (qRT-PCR), duplicated experiment","[2]; castalagin 0.85 mg/kg, n=10",increase of Ruminococcaceae
same,Ruminococcaceae abundance (qRT-PCR),[2]; standard castalagin dose (0.85 mg/kg),significantly increased
same,Ruminococcaceae abundance (qRT-PCR),[2]; three-fold standard castalagin dose (2.55 mg/kg),significantly increased
